Several values for one entry are separate records, joined by “and”; a condition that tells them apart may be missing. Equal values may be shown once.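 In this assay, cells in 96-well plates receive the compound at five concentrations for 48 hours. Endpoints are linearly interpolated between the surrounding concentrations. GI50 = concentration required for 50% inhibition of growth. The concentration for full growth arrest is given as TGI.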
Experiments:
Assay in all cases: growth of human tumour cells (NCI), 48 h
HS 578T breast = system: HS 578T breast
HOP-62 NSCLC = system: HOP-62 NSCLC
MCF7 breast = system: MCF7 breast
COLO 205 colon = system: COLO 205 colon
MOLT-4 leukemia = system: MOLT-4 leukemia
OVCAR-3 ovarian = system: OVCAR-3 ovarian
NCI-H460 lung = system: NCI-H460 lung
TK-10 renal = system: TK-10 renal
HOP-92 NSCLC = system: HOP-92 NSCLC
MALME-3M melanoma = system: MALME-3M melanoma

| SMILES | GI50 (HS 578T breast) | TGI (HS 578T breast) | GI50 (HOP-62 NSCLC) | TGI (HOP-62 NSCLC) | GI50 (MCF7 breast) | TGI (MCF7 breast) | GI50 (COLO 205 colon) | TGI (COLO 205 colon) | GI50 (MOLT-4 leukemia) | TGI (MOLT-4 leukemia) | GI50 (OVCAR-3 ovarian) | TGI (OVCAR-3 ovarian) | GI50 (NCI-H460 lung) | TGI (NCI-H460 lung) | GI50 (TK-10 renal) | TGI (TK-10 renal) | GI50 (HOP-92 NSCLC) | TGI (HOP-92 NSCLC) | GI50 (MALME-3M melanoma) | TGI (MALME-3M melanoma) |
| --- | --- | --- | --- | --- | --- | --- | --- | --- | --- | --- | --- | --- | --- | --- | --- | --- | --- | --- | --- | --- |
| CCN(CC)CCNc1ccc(N=Nc2cnc3ccccc3c2)c2ccccc12 | 2.62 µM | 7.3 µM | 1.66 µM | 3.02 µM | 1.37 µM | 2.7 µM | 1.61 µM | 2.98 µM | 1.56 µM | 3.03 µM | 1.78 µM | 3.43 µM | 1.72 µM | 3.18 µM | 2.1 µM | 3.87 µM |  |  |  |  |
| COc1ccc(-c2nsc3c2NC(=O)CC3c2cccc(F)c2)cc1 (stereo not drawn) | 3.95 µM | > 100 µM | 8.79 µM | > 100 µM | 3.89 µM | > 100 µM | 2.95 µM | > 100 µM | 5 µM | > 100 µM | 3.32 µM | 12.3 µM | 3.63 µM | > 100 µM | 5.26 µM | > 100 µM | 3.57 µM | 40.6 µM | 6.08 µM | > 100 µM |
| Cc1c(C(=O)/C=C/c2ccc(Cl)cc2)nnn1-c1ccnc2c(C(F)(F)F)cccc12 | 64.3 µM | > 100 µM | 22 µM | 47.8 µM | 70.7 µM | > 100 µM | > 100 µM | > 100 µM | 19.3 µM | 68.3 µM | 36.6 µM | > 100 µM | 48.9 µM | > 100 µM | 34.9 µM | > 100 µM | 18.4 µM | 60.6 µM | 26.8 µM | > 100 µM |
| COc1ccc2[nH]cc(Cc3c[nH]c4ccc(OC)cc34)c2c1 | 15.6 µM | 49.6 µM |  |  | 28.7 µM | > 100 µM | 18.6 µM | 35.3 µM | 37.4 µM | > 100 µM | 13.3 µM | 31.3 µM | 22.7 µM | 63.8 µM | 15.9 µM | 44 µM |  |  |  |  |
| N#Cc1ccc(O)c(C2=NCC(c3ccc(-c4ccccc4)cc3)O2)c1 (stereo not drawn) | 0.867 µM | 31.9 µM | 0.41 µM | 10.9 µM | 0.343 µM | 11.8 µM | 0.349 µM | 14.8 µM | 0.482 µM | 27.7 µM | 0.368 µM | 11.7 µM | 0.279 µM | 8.75 µM |  |  | 0.421 µM | 22.5 µM | 1.71 µM | 14.3 µM |
| CC(C)c1ccc(C(c2c(O)c3ccccc3oc2=O)c2c(O)c3ccccc3oc2=O)cc1 |  | 61.8 µM |  | 50.5 µM |  | 86 µM |  | 34.2 µM |  | 21.9 µM |  | 37.9 µM |  | 37.6 µM |  | 68 µM |  | 21.2 µM |  | 38.4 µM |
| COc1ccc(C(=O)/C=C/c2c(C(F)(F)F)nc3ccccn23)cc1OC | 2.31 µM | > 100 µM | 3.38 µM | > 28.4 µM | 0.518 µM | > 100 µM | 1.86 µM | 3.95 µM | 0.711 µM | 3.24 µM | 2.28 µM | 6.09 µM | 0.933 µM | 2.99 µM | 2.07 µM | > 20.6 µM |  |  | 13.8 µM | > 100 µM |
| COc1ccc(C2CC(c3ccc4ccccc4c3)=NN2c2nc(O)c(C3=c4cc(Cl)ccc4=NC3=O)s2)cc1 (stereo not drawn) | 0.0283 µM | 0.0973 µM | 0.025 µM and < 0.005 µM |  | 0.0292 µM and < 0.005 µM |  | 0.0221 µM | 0.0503 µM | 0.0329 µM and < 0.005 µM |  | 0.0202 µM and < 0.005 µM | 0.0396 µM and < 0.005 µM | 0.0216 µM | 0.0472 µM | 0.0195 µM and < 0.005 µM |  | 0.0168 µM and < 0.005 µM |  | 0.0182 µM and < 0.005 µM | 0.0363 µM and < 0.005 µM |
| CCOP(=O)(OCC)C(NC(c1ccccc1)c1ccccc1)c1ccsc1 (stereo not drawn) | 29.7 µM | 66.3 µM |  |  | 24.2 µM | > 100 µM |  |  | 25.4 µM | > 100 µM | 16.1 µM | 32.2 µM | 18.7 µM | 53.7 µM | 16.1 µM | 32.2 µM | 14.3 µM | 30.8 µM |  |  |
| Cc1ccc2c(c1)C(=O)/C(=C/c1cccc(OCC(=O)c3ccc(Cl)cc3)c1)CS2 | 1.54 µM | 4.42 µM | 13 µM | 30.6 µM | 3 µM | 11.3 µM | 9.31 µM | 35.8 µM | 2.69 µM | 8.32 µM | 5.58 µM | 18 µM | 18.8 µM | > 100 µM | 14.1 µM | 39.5 µM |  |  | 15.5 µM | 46.1 µM |
| NS(=O)(=O)c1ccc(-n2nc(-c3ccccc3)cc2-c2cc(O)ccc2O)cc1 | > 100 µM | > 100 µM | 90.8 µM | > 100 µM | 69.4 µM | > 100 µM | > 100 µM | > 100 µM | 8.71 µM | > 100 µM | > 100 µM | > 100 µM | > 100 µM | > 100 µM | 35.9 µM | 95.2 µM | > 100 µM | > 100 µM |  |  |
| COC(=O)c1cc2c([nH]c3ccccc32)c(-c2nc3ccccc3cc2CO)n1 | > 100 µM | > 100 µM |  |  | > 100 µM | > 100 µM | > 100 µM | > 100 µM | > 100 µM | > 100 µM | > 100 µM | > 100 µM | > 100 µM | > 100 µM | > 100 µM | > 100 µM | 53.5 µM | > 100 µM | > 100 µM | > 100 µM |
| Cc1nccc2c3ccc(OCc4cn(-c5ccc(Br)cc5)nn4)cc3n(CCCc3ccccc3)c12 | 1.31 µM | 4.56 µM | 3.16 µM | 29.6 µM | 3.09 µM | > 100 µM |  |  | 5.55 µM | > 100 µM | > 100 µM | > 100 µM | 3.03 µM | > 100 µM | 1.62 µM | 3.29 µM | 47.4 µM | > 100 µM | 1.62 µM | 3.57 µM |
| O=C1NC(c2cccc3ccccc23)Nc2ccccc21 (stereo not drawn) |  | 92.2 µM | 0.0317 µM | 29.6 µM | 0.284 µM | 2.56 µM | 0.027 µM | 0.0954 µM | 0.0443 µM |  | 0.0215 µM | 0.0568 µM and 0.0442 µM | 0.0405 µM | 0.73 µM and 4.89 µM | 0.0545 µM | > 68 µM |  |  | 0.0263 µM | 43.7 µM |
